Earlier results on one compound are cited in patent US11179350B2, “Nutraceutical compositions comprising C60 and Cox-2 inhibitor” (priority 2018, dated 2021).

In series [1] the test system is tumor growth and metastasis. The note with it: Prylutska et al. 2011.
The conditions of series [2]: more potent than Vitamin C.
The next series relates to rats. The note with it: repeated oral administration (Baati et al. 2012).
A further series concerns mice. As to conditions: mice (Quick et al. 2008).

As to `c12c3c4c5c1c1c6c7c2c2c8c3c3c9c4c4c%10c5c5c1c1c6c6c%11c7c2c2c7c8c3c3c8c9c4c4c9c%10c5c5c1c1c6c6c%11c2c2c7c3c3c8c4c4c9c5c1c1c6c2c3c41` [C60, Buckminsterfullerene], the “tumor growth and metastasis” value in series [1] is “inhibit tumor growth and metastasis”. For the same compound, the “antioxidant potency relative to Vitamin C” value in series [2] is recorded as 172 times. Further, the prolongation of life result in the series on rats and with mice was “prolong life” each time.
